Test results as given in patent US8603968B2, “Cyclic peptides comprising at least one aza-β3-aminoacyl residue and their uses” (Centre National de la Recherche Scientifique, priority 2007, dated 2013).
≈ marks a conversion by molar mass, not a printed value.

What was measured:
[1] = system: sheep erythrocytes; experiment: Haemolytic activity on sheep erythrocytes; assay type: cell-based; conditions: at the doses tested, 1 hour at 37° C.
Method: The haemolytic activity of the pseudopeptides is tested on sheep blood cells. The sheep erythrocytes are washed three times with a phosphate buffer saline [PBS buffer (pH 7.4)] by 5 minutes' centrifugation at 900 g and the final pellet is suspended in PBS. For the concentration of the erythrocyte solution, a concentration of erythrocytes corresponding to OD540 nm is established, and for the control well 100% haemolysis in the presence of 0.8 Triton X-100. The solutions of the different pseudopeptides diluted in water (100 μL) are arranged in a 96-well plate. 50 μL, of PBS 2× buffer solution then 50 μL of sheep erythrocyte solution is added to these solutions in order to produce a final volume of 200 μL. The suspensions obtained are incubated for 1 hour at 37° C. The samples are then centrifuged at 500 g for 5 min. 130 μL of supernatant of each sample is transferred to a new 96-well plate. The release of haemoglobin is quantified by measuring the absorbance at 540 nm of the supernatant by means of a microplate reader. The controls corresponding to the absence of haemolysis (white) and 100% haemolysis involve, respectively, the addition of 100 μL of PBS buffer and 100 μL of a 2% Triton X-100 solution to the wells containing 100 μL of saline erythrocyte solution (50 μL of PBS 2× and 50 μL of blood cell solution). Each measurement is carried out in triplicate.

[2] = system: Streptococcus aureus; experiment: Antibacterial activity in poor medium enriched with beef extract PBB (MIC, MBC); assay type: cell-based; conditions: increasing doses (FIG. 3)
Method: (§1) The tests were carried out on Gram-negative bacterial strains of Group 2 (pathogens): Escherichia coli, Salmonella thyphimurium, Pseudomonas aeruginosa, Klebsiella pneumonie and on Gram-positive strains: Bacillus megaterium (group 1) and […] (group 2).
(§2) The bacteria are incubated in a PB poor medium in the case of the bacteria: Escherichia coli, Pseudomonas aeruginosa, Klebsiella pneumoniae, Bacillus megaterium and in a poor medium enriched with beef extract PBB in the case of two other bacteria: […] and Salmonella thyphimurium with increasing concentrations of peptides or analogues ranging from 1 to 320 μg/ml. This test is carried out in 96-well microplates. After incubation for 18 hours at 30° C. or 37° C., the optical density of the microplates is read at 595 nm in order to evaluate the bacterial growth and determine the minimum inhibitory concentration (MIC) for each molecule tested. Each measurement is performed in triplicate.
(§3) Moreover, the minimum bactericidal concentration (MBC) is determined by plating the contents of the wells where there is an absence of bacterial growth on dishes containing rich media (Luria broth or (LB) or Brain Heart Infusion (BHi). The MBC corresponds to the concentration at which no bacterial colony is detected after incubation for 24 hours at 30 or 37° C.

[3] = system: Salmonella thyphimurium; experiment: Antibacterial activity in poor medium enriched with beef extract PBB; assay type: cell-based; conditions: increasing doses (FIG. 4)
Method: as §1, §2, §3

[4] = system: Gram-negative bacteria (E. coli to A. caviae); experiment: Antibacterial activity in TSB rich medium (MIC), Gram-negative bacteria; assay type: cell-based; conditions: 48 hours, at the concentrations tested (0.78-100 μM)
Method: The tests were carried out on Gram-negative bacterial strains: Escherichia coli ATCC 25922, Salmonella enterica ATCC 13076, Pseudomonas aeruginosa ATCC 27853, Klebsiella oxytoca CIP 7932, Enterobacter aerogenes ATCC 13048 and Aeromonas caviae ATCC 15468 and on Gram-positive strains: Staphylococcus aureus ATCC 25923, Enterococcus faecalis CIP 186, Streptococcus equinus ATCC 5623, Listeria monocytogenes SOR 100, Bacillus megaterium ATCC 10778, Lactococcus gaviae ATCC 43921, Micrococcus luteus ATCC 10240.
The bacteria (10^5 CFU/mL) are incubated in a TSB (Tryptic Soy Broth) rich medium with increasing concentrations of cyclopseudopeptides (0.78, 3.12, 6.25, 12.5, 25, 50, 100 μM). This test is carried out in 96-well microplates. After incubation for 48 hours at 20° C. or 37° C., the optical density of the microplates is read at 595 nm in order to evaluate the bacterial growth and determine the minimum inhibitory concentration (MIC) for each molecule tested. Each measurement is carried out in triplicate.

[5] = system: mouse cell line ascites 302-sp; experiment: In vitro cytotoxicity (MTT); assay type: cell-based
Method: (§4) The effects of the different cyclic pseudopeptides on cell growth are evaluated in sterile 96-well plates. The cells are seeded at 5.10^5 cells per mL of culture medium (100 μL per well). The different pseudopeptides (10 μL per well) diluted in a saline solution are added at the time of seeding at the appropriate concentration (from 1 μg/mL to 1 mg/mL). The incubations are carried out at 37° C. under a humidified atmosphere containing 5% CO2 for 24 or 48 hours.
(§5) After exposure to the compounds, the cell growth is assessed by measuring the formation of formazan from 3-(4,5-dimethylthiazol-2-yl)-2,5-diphenyltetrazolium (MTT). The absorbance at 540 nm is measured by a Titertek Multiscan MCC/340 microplate reader. Each measurement is carried out in triplicate.

[6] = system: hamster cells (CHO-K1); experiment: In vitro cytotoxicity (MTT); assay type: cell-based; conditions: at 10 μg/mL
Method: as §4, §5

[7] = In vitro cytotoxicity (MTT); assay type: cell-based, hamster; conditions: hamster, CHO-K1 cells; read-out: lethal dose for 50% of the cells (LD50)
Method: as §4, §5

[8] = system: rabbit erythrocytes; experiment: Haemolytic activity on rabbit erythrocytes; assay type: cell-based
Method: The haemolytic activity of the pseudopeptides is tested on rabbit blood cells. Fresh rabbit erythrocytes are washed three times with a phosphate buffer saline [PBS buffer (pH 7.4)] by centrifugation for 5 min at 900 g and the final pellet is suspended in PBS. The NafNaf pseudopeptide solutions diluted in PBS (90 μL) are arranged in a 96-well plate. 90 μL of 2% rabbit erythrocyte solution (v/v) is added to these solutions to give a final volume of 180 μL and a concentration of 1% (v/v) blood cells. The suspensions obtained are incubated for 1 hour at 37° C. The samples are then centrifuged at 500 g for 5 min. 100 μL of supernatant of each sample is transferred into a new 96-well plate. The release of the haemoglobin is quantified by measuring the absorbance at 415 nm of the supernatant using a microplate reader. The controls corresponding to the absence of haemolysis (white) and to a 100% haemolysis consist, respectively, of the addition of 90 μL of PBS buffer and 90 μL of a 2% solution of Triton X-100 to the 90 μL of 2% blood cell solution. Each measurement is carried out in triplicate.

[9] = system: rabbit erythrocytes; conditions: comparison peptide alternating L and D amino acids; cited from earlier work

In the case of `CC(C)C[C@@H]1NC(=O)CN(Cc2ccc(F)c3ccccc23)NC(=O)[C@H](CC(C)C)NC(=O)CN(Cc2cccc3ccccc23)NC(=O)[C@H](CCCCN)NC(=O)CN(CCCCN)NC1=O` [4Fluo1Naf, c[-Leu-azaβ^3Lys-Lys-azaβ^3(1)-Nal-Leu-azaβ^3(4F-1)Nal-]], the haemolytic activity [1] was “no significant haemolytic activity”.
For `CC1(C)S[C@@H]2[C@H](NC(=O)[C@H](N)c3ccccc3)C(=O)N2[C@H]1C(=O)O` [Ampicillin], the “concentration at which active” value [2] was 1 µg/mL and the “concentration at which active” value [3] was 1 µg/mL.
For `CCCCCCCCCCCCN1CC(=O)N[C@@H](Cc2c[nH]c3ccccc23)C(=O)NN(Cc2cccc3ccccc23)CC(=O)N[C@@H](CCCCN)C(=O)NN(CCCCN)CC(=O)N[C@@H](CC2CCCCC2)C(=O)N1` [Chado, c[-Lys-azaβ^3Lys-Cha-azaβ^3Amy-Trp-azaβ^3(1)Nal-]], the “activity on the Gram-negative bacteria” value [4] was “no activity”.
In the case of `N=C(N)NCCC[C@@H]1NC(=O)CN(CC2CCCCC2)NC(=O)[C@H](Cc2c[nH]c3ccccc23)NC(=O)CN(Cc2ccc(F)cc2)NC(=O)[C@H](CC2CCCCC2)NC(=O)CN(CCCCN)NC1=O` [FluoKil, c[-Arg-azaβ^3Lys-Cha-azaβ^3(4)Fpa-Trp-azaβ^3Cha-]], the haemolytic activity [1] was “no significant haemolytic activity”.
In the case of `CC(C)C[C@@H]1NC(=O)CN(Cc2cccc3ccccc23)NC(=O)[C@H](CC(C)C)NC(=O)CN(Cc2cccc3ccccc23)NC(=O)[C@H](CCCCN)NC(=O)CN(CCCCN)NC1=O` [NafNaf, c[-Leu-azaβ^3Lys-Lys-azaβ^3(1)Nal-Leu-azaβ^3(1)Nal-]], the haemolytic activity [1] was “no significant haemolytic activity”, the LD50 ([5]; ascites 302-sp, compared with hamster cells) was “slightly lower” and the “effect on the cell viability” value ([5]; at 10 μg/mL) was “slight effect”. The cytotoxic effect [6] was “no cytotoxic effect”, the CC50 [7] was about 40 µg/mL (≈ 43.4 µM) and the “action on the erythrocytes” value ([8]; at 20 μg/mL) was “no action”. For the same compound, the haemolytic activity ([8]; at the concentrations at which it is bactericidal) was “no haemolytic activity”.
For “[-(D)Lys-(L)Lys-(D)Leu-(L)Trp-(D)Leu-(L)Trp-]”, the “concentration at which haemolytic” value [9] is listed as 80 µg/mL.
